Experimental data taken from patent publication US4891373A, “Aminopropanol derivatives of 1,4:3,6-dianhydrohexitol nitrates, processes for their preparation and their use as medicaments” (Pfizer Inc., priority 1988, dated 1990).

Legend:
[1] = test system: T-wave increase in the ECG induced by lypressin; test: Influence on the T-wave increase in the ECG of the anesthetized rat induced by intravenous bolus injection of lypressin; assay type: in vivo; conditions: p.o.
Procedure: Influence of various compounds on the T-wave
increase in the ECG of the anesthetized rat induced by
intravenous bolus injection of lypressin was determined
following the method of M. Leitold et al., Drug Res.,
36, 1454 (1986). The substances were administered
perorally 30 minutes or at various times before the […]

[2] = Survival rate of rats after an acute coronary ligature; assay type: in vivo, rat
Procedure: Influence of various substances on the survival
rate of rats 60 minutes, 24 hours and 7 days after an
acute coronary ligature was determined following the
method of I. Lepran, et al., L. Szekeres, Acta
Physiologica Sci. Hungaricae 53, 190 (1979). The
substances were administered orally 5 minutes before
the acute coronary ligature.

[3] = test system: cardiovascular parameters (MAP, HR, LVSP, LVEDP, dp/dtmax, TPR, PAP, SV, CO); test: Cardiovascular actions following intravenous administration to anesthetized dogs (pentobarbital) with opened thorax and artificial respiration; assay type: in vivo, dog; conditions: for CO (cardiac output), change / PAP (blood pressure in the A. pulmonalis), change / SV (stroke volume), change: vs pre-value, unsigned
Excerpt: (§1) venous administration to anesthetized dogs (pentobarbital)
(§2) with an opened thorax and artificial respiration.
as §1, §2

[4] = test system: systolic blood pressure (SBP) and heart rate (HR); test: Systolic blood pressure and heart rate following peroral administration to conscious beagle dogs; assay type: in vivo, beagle dog; conditions: mean ± SEM
Excerpt: Duration of the action of various substances on the systolic blood
heart rate (HR) following peroral administration to conscious beagle

[5] = Tolerance of peroral dose in mice; conditions: mouse, in vivo, po
Excerpt: Set forth below is data obtained on the compounds of Examples 17, 19 and 20 that illustrates the pharmacological action of the compounds of the present invention.

[6] = 60 minutes, 100.0 mg/kg orally 5 min before ligature
[7] = 24 hours, 100.0 mg/kg orally 5 min before ligature
[8] = 7 days, 100.0 mg/kg orally 5 min before ligature

SMILES | Duration of action at the ED50 dose [1] | CO (cardiac output), action of substance ([3]; 30 μg/kg i.v.) | CO (cardiac output), duration of action ([3]; 30 μg/kg i.v.) | PAP (blood pressure in the A. pulmonalis), action of substance ([3]; 30 μg/kg i.v.) | PAP (blood pressure in the A. pulmonalis), duration of action ([3]; 30 μg/kg i.v.) | SV (stroke volume), duration of action ([3]; 30 μg/kg i.v.) | CO (cardiac output), change ([3]; 30 μg/kg i.v.) | PAP (blood pressure in the A. pulmonalis), change ([3]; 30 μg/kg i.v.) | SV (stroke volume), change ([3]; 30 μg/kg i.v.) | CO (cardiac output), duration of action ([3]; 300 μg/kg i.v.) | PAP (blood pressure in the A. pulmonalis), duration of action ([3]; 300 μg/kg i.v.) | SV (stroke volume), action of substance ([3]; 300 μg/kg i.v.) | SV (stroke volume), duration of action ([3]; 300 μg/kg i.v.) | PAP (blood pressure in the A. pulmonalis), change ([3]; 300 μg/kg i.v.) | SV (stroke volume), change ([3]; 300 μg/kg i.v.) | CO (cardiac output), duration of action ([3]; 3000 μg/kg i.v.) | PAP (blood pressure in the A. pulmonalis), duration of action ([3]; 3000 μg/kg i.v.) | SV (stroke volume), duration of action ([3]; 3000 μg/kg i.v.) | CO (cardiac output), change ([3]; 3000 μg/kg i.v.) | Tolerated peroral dose [5] | further results
COc1ccccc1N1CCN(CC(O)CO[C@H]2CO[C@H]3[C@@H]2OC[C@H]3O[N+](=O)[O-])CC1 (stereo partly drawn) [Example 17, 2-O-<3-[4-(2-Methoxyphenyl)-piperazinyl]-2-hydroxypropyl>-isosorbide-5-nitrate] | 2 h | 0.93 ± 0.07 l/M | 6 ± 3 min | 17.0 ± 4 mmHg | 2 ± 0.3 min | 2 ± 0.2 min | 0.07 ± 0.04 l/M | 1.3 ± 0.5 mmHg | 0.4 ± 0.2 mL/s | 73 ± 40 min | 1.4 ± 0.1 min | 3.7 ± 0.4 mL/s | 74 ± 43 min | 1.5 ± 0.5 mmHg | 0.7 ± 0.3 mL/s | > 75 min | 2 ± 0.6 min | > 75 min | 0.450 ± 0.025 l/m | 500 mg/kg | Number of rats surviving after an acute coronary ligature ([2]; 60 minutes, 30.0 mg/kg orally 5 min before ligature): 17/20; Number of rats surviving after an acute coronary ligature ([2]; 24 hours, 30.0 mg/kg orally 5 min before ligature): 17/20; Number of rats surviving after an acute coronary ligature ([2]; 7 days, 30.0 mg/kg orally 5 min before ligature): 17/20; SV (stroke volume), action of substance ([3]; 3000 μg/kg i.v.): 3.0 ± 0.6 mL/s; PAP (blood pressure in the A. pulmonalis), change ([3]; 3000 μg/kg i.v.): 2.3 ± 0.8 mmHg; SV (stroke volume), change ([3]; 3000 μg/kg i.v.): 2.6 ± 0.4 mL/s; SBP (systolic blood pressure), action of substance ([4]; 6.0 mg/kg p.o., after 1 hour): 91 ± 6 mmHg; HR (heart rate), action of substance ([4]; 6.0 mg/kg p.o., after 2 hours): 110 ± 16 Bts/M; SBP (systolic blood pressure), action of substance ([4]; 6.0 mg/kg p.o., after 2 hours): 89 ± 4 mmHg; HR (heart rate), action of substance ([4]; 6.0 mg/kg p.o., after 3 hours): 89 ± 8 Bts/M; SBP (systolic blood pressure), action of substance ([4]; 6.0 mg/kg p.o., after 3 hours): 97 ± 5 mmHg; HR (heart rate), action of substance ([4]; 6.0 mg/kg p.o., after 6 hours): 89 ± 5 Bts/M; HR (heart rate), action of substance ([4]; 6.0 mg/kg p.o., after 8 hours): 85 ± 7 Bts/M
COc1ccccc1N1CCN(CC(O)CO[C@@H]2CO[C@H]3[C@@H]2OC[C@H]3O[N+](=O)[O-])CC1 (stereo partly drawn) [Example 19, 5-O-<3-[4-(2-Methoxyphenyl)-piperazinyl]-2-hydroxypropyl>-isomannide-2-nitrate] | 4 h | – | – | – | – | – | – | – | – | – | – | – | – | – | – | – | – | – | – | 500 mg/kg | Number of rats surviving after an acute coronary ligature [2, 6]: 15/20; Number of rats surviving after an acute coronary ligature [2, 7]: 15/20; Number of rats surviving after an acute coronary ligature [2, 8]: 15/20; HR (heart rate), action of substance ([4]; 5.0 mg/kg p.o., after 2 hours): 90 ± 5 Bts/M; HR (heart rate), action of substance ([4]; 5.0 mg/kg p.o., after 3 hours): 85 ± 5 Bts/M; SBP (systolic blood pressure), action of substance ([4]; 5.0 mg/kg p.o., after 3 hours): 118 ± 6 mmHg; HR (heart rate), action of substance ([4]; 5.0 mg/kg p.o., after 6 hours): 86 ± 5 Bts/M
COc1ccccc1N1CCN(CC(O)CO[C@H]2CO[C@H]3[C@@H]2OC[C@@H]3O[N+](=O)[O-])CC1 (stereo partly drawn) [Example 20, 5-O-<3-[4-(2-Methoxyphenyl)-piperazinyl]-2-hydroxypropyl>-isoidide-2-nitrat] | 4 h | 0.81 ± 0.3 l/M | 12 ± 6 min | 16.0 ± 1 mmHg | 11 ± 6 min | 12 ± 6 min | 0.38 ± 0.1 l/M | 0.4 ± 0.2 mmHg | 2.3 ± 1 mL/s | 35 ± 23 min | 14 ± 13 min | 7.2 ± 2.5 mL/s | 33 ± 23 min | 0.7 ± 0.3 mmHg | 0.5 ± 2.9 mL/s | 3 ± 0.4 min | > 177 min | 4 ± 0.0 min | 0.87 ± 0.7 l/m | 500 mg/kg | Number of rats surviving after an acute coronary ligature [2, 6]: 14/20; Number of rats surviving after an acute coronary ligature [2, 7]: 14/20; Number of rats surviving after an acute coronary ligature [2, 8]: 14/20; SV (stroke volume), action of substance ([3]; 30 μg/kg i.v.): 7.5 ± 2 mL/s; CO (cardiac output), change ([3]; 300 μg/kg i.v.): 0.21 ± 0.6 l/M; PAP (blood pressure in the A. pulmonalis), change ([3]; 3000 μg/kg i.v.): 1.1 ± 0.3 mmHg; HR (heart rate), action of substance ([4]; 5.0 mg/kg p.o., after 1 hour): 98 ± 7 Bts/M; SBP (systolic blood pressure), action of substance ([4]; 5.0 mg/kg p.o., after 1 hour): 97 ± 8 mmHg; SBP (systolic blood pressure), action of substance ([4]; 5.0 mg/kg p.o., after 2 hours): 95 ± 6 mmHg; HR (heart rate), action of substance ([4]; 5.0 mg/kg p.o., after 3 hours): 82 ± 7 Bts/M; SBP (systolic blood pressure), action of substance ([4]; 5.0 mg/kg p.o., after 3 hours): 106 ± 4 mmHg; HR (heart rate), action of substance ([4]; 5.0 mg/kg p.o., after 6 hours): 78 ± 6 Bts/M; HR (heart rate), action of substance ([4]; 5.0 mg/kg p.o., after 8 hours): 77 ± 6 Bts/M
